Common to all, as to assay type: functional
A short description of test [1]: Local anaesthetic activity in rat sciatic nerve assessed as vitality time.
A short description of test [2]: Local anaesthetic activity in rat sciatic nerve assessed as time required to decrease compound action potential to 50 % relative to Lidocaine. Further details: scale not given: the % may be the effect or the level left.
Test [3] is described as follows: Local anaesthetic activity in rat sciatic nerve assessed as time required to decrease compound action potential to recover to 50 %.
Test [4] is described as follows: Local anaesthetic activity in rat sciatic nerve assessed as time required to decrease compound action potential to 100 %.
Test [5] is described as follows: Local anaesthetic activity in rat sciatic nerve assessed as time required to decrease compound action potential to 100 % relative to Lidocaine. Further details: scale not given: the % may be the effect or the level left.
Test [6] is described as follows: Local anaesthetic activity in rat sciatic nerve assessed as time required to decrease compound action potential to 50 %.
Test [7] in a line: Local anaesthetic activity in rat sciatic nerve assessed as time required to decrease compound action potential to recover to 50 % at 1.5%.
A short description of test [8]: Local anaesthetic activity in rat sciatic nerve assessed as time required to decrease compound action potential to 50 % at 1.5%.
Test [9] can be described thus: Local anaesthetic activity in rat sciatic nerve assessed as vitality time at 1.5%.
The nature of test [10]: Local anaesthetic activity in rat sciatic nerve assessed as time required to decrease compound action potential to 100 % at 1.5%.
A short description of test [11]: Local anaesthetic activity in rat sciatic nerve assessed as time required to decrease compound action potential to 100 % at 1.5% relative to Lidocaine. Also noted: scale not given: the % may be the effect or the level left.
Test [12] in a line: Local anaesthetic activity in rat sciatic nerve assessed as time required to decrease compound action potential to 50 % at 1.5% relative to Lidocaine. Further details: scale not given: the % may be the effect or the level left.

As for `Cc1ccc2snc(NC(=O)C(C)N3CCOCC3)c2c1` (centres undefined), the VT50 in [1] was determined as 738 min. The Activity in test [2] stood at 140.8%; in test [5], 70%. Moreover, the RT50 in test [3] turned out to be 60 min. In addition, the IT100 in [4] was determined as 20 min. For the same compound, the IT50 in [6] was 2.23 min.

As for `CCN(CC)CC(=O)Nc1nsc2ccccc12`, in [7], the RT50 is 121.5 min. Also, the IT50 in test [8] is 12 min. For the same compound, the VT50 in test [9] came to 600 min. In addition, the IT100 in test [10] came to 53.9 min. For the same compound, the Activity turned out to be 26% in test [11] and 26.2% in [12].

On to `Cc1ccc2snc(NC(=O)C(C)NC3CCCCC3)c2c1` (centres undefined), for which the values for the Activity in test [2] and in test [5] were 8.1% and 32.9%, respectively. Besides, the IT100 in test [4] came to 42.5 min. Also, the IT50 in test [6] stood at 39 min.

With `CC(C(=O)Nc1nsc2ccccc12)N1CCCCC1` (centres undefined), the VT50 in test [1] is recorded as 500 min. Also, the results for the Activity in [2] and in test [5] were 21.7% and 73.7%, respectively. The RT50 in [3] is reported as 58 min. Moreover, in test [4], the IT100 is reported as 20.9 min. Also, in test [6], the IT50 stood at 8.9 min.

Regarding `CC(C(=O)Nc1nsc2ccccc12)N(C)C` (centres undefined), the VT50 in test [1] is 690 min. Also, the Activity in test [2] is given as 18.8%; in test [5] it was 70%. For the same compound, the RT50 in test [3] is 77 min. The IT100 in test [4] is listed as 14 min. Moreover, the IT50 in test [6] is reported as 7.4 min.

Turning to `CCNC(C)C(=O)Nc1nsc2ccc(C)cc12` (centres undefined), in test [1], the VT50 was 702 min. Also, the figures for the Activity in test [2] and in [5] were 74.8% and 108.5%, respectively. For the same compound, in test [3], the RT50 is recorded as 100 min. The IT100 in [4] was 12.9 min. The IT50 in test [6] turned out to be 4.2 min.

Consider `CNCC(=O)Nc1nsc2ccccc12`, for which, in test [1], the VT50 is given as 786 min. In addition, the Activity was determined as 31.4% in test [2] and 41.2% in [5]. For the same compound, in test [3], the RT50 was determined as 48 min. The IT100 in test [4] is listed as 34 min. Besides, the IT50 in test [6] was found to be 10 min.

As for `O=C(CN1CCC(c2ccccc2)CC1)Nc1nsc2ccccc12`, the Activity in [2] stood at 17%. Further, the IT50 in [6] came out at 18.5 min.

Take `CNC(C)C(=O)Nc1nsc2ccccc12` (centres undefined): in test [1], the VT50 is listed as 450 min. The Activity in test [2] amounted to 24.5%; in test [5] it was 121.7%. The RT50 in test [3] turned out to be 68 min. Also, the IT100 in test [4] came out at 26.7 min. The IT50 in test [6] amounted to 12.8 min.

Take `CCCNC(C)C(=O)Nc1nsc2ccccc12` (centres undefined): the VT50 in test [1] is reported as 750 min. Moreover, the Activity in test [2] amounted to 31.4%; in [5], 70%. Further, the RT50 in test [3] was 88.9 min. In addition, the IT100 in test [4] was 24.1 min. Besides, the IT50 in [6] worked out at 5.3 min.

With `CC(NC1CCCCC1)C(=O)Nc1nsc2ccccc12` (centres undefined), the Activity in [2] came out at 44.9%; in test [5], 63.6%. The RT50 in [3] is 52.3 min. Besides, in test [4], the IT100 stood at 25.3 min. Besides, in test [6], the IT50 came out at 5.8 min.

Take `CCN(CC)C(C)C(=O)Nc1nsc2ccccc12` (centres undefined): in test [1], the VT50 stood at 404.2 min. Also, the Activity came to 49.8% in test [2] and 84.8% in test [5]. In test [3], the RT50 was found to be 57.7 min. Also, the IT100 in test [4] is listed as 14.1 min. In test [6], the IT50 is 3.85 min.

In the case of `CNC(C)C(=O)Nc1nsc2ccc(C)cc12` (centres undefined), the VT50 in test [1] was determined as 780 min. For the same compound, the Activity in [2] came to 47.6%; in test [5], 70%. Further, the RT50 in test [3] was 60 min. The IT100 in test [4] worked out at 20 min. Moreover, in test [6], the IT50 worked out at 6.6 min.

Consider `Cc1ccc2snc(NC(=O)C(C)N3CCCC3)c2c1` (centres undefined), for which, in test [1], the VT50 was 498 min. For the same compound, the results for the Activity in test [2] and in [5] were 179% and 80%, respectively. Also, in test [3], the RT50 amounted to 122 min. Also, the IT100 in test [4] was 17.5 min. Besides, in [6], the IT50 is 1.75 min.

As to `O=C(CCN1CCCC1)Nc1nsc2ccccc12`, the VT50 in test [1] is listed as 870 min. The results for the Activity in test [2] and in [5] were 31.4% and 68.6%, respectively. The RT50 in [3] came out at 136.6 min. Further, the IT100 in [4] amounted to 20.4 min. The IT50 in test [6] was 10 min.

On to `CCNC(C)C(=O)Nc1nsc2ccccc12` (centres undefined), for which the VT50 in test [1] is given as 861 min. Moreover, the Activity in [2] worked out at 74.8%; in [5], 108.5%. Further, in test [3], the RT50 is given as 100 min. The IT100 in test [4] was 12.9 min. For the same compound, the IT50 in test [6] was determined as 4.2 min.

Consider `CC(C(=O)Nc1nsc2ccccc12)N1CCOCC1` (centres undefined), for which the VT50 in [1] came out at 350 min. For the same compound, the values for the Activity in [2] and in [5] were 26.6% and 60.9%, respectively. Besides, in test [3], the RT50 is 126 min. Besides, the IT100 in test [4] came out at 23 min. Also, in test [6], the IT50 stood at 11.8 min.

For `CN(C)CC(=O)Nc1nsc2ccccc12`, the VT50 in test [1] amounted to 250 min. The Activity in test [2] was 29.9%. In test [3], the RT50 amounted to 100 min. The IT50 in test [6] was 10.5 min.

For `CCCNCC(=O)Nc1nsc2ccccc12`, the VT50 in test [1] was found to be 250 min. Moreover, the Activity in test [2] was 31.4%; in [5], 80%. The RT50 in [3] is 200 min. In addition, the IT100 in test [4] worked out at 17.5 min. The IT50 in [6] came to 10 min.

In the case of `CCNCCC(=O)Nc1nsc2ccccc12`, in test [1], the VT50 is 400.8 min. For the same compound, the figures for the Activity in test [2] and in test [5] were 12% and 17.6%, respectively. In test [3], the RT50 is on record as 154.8 min. Besides, the IT100 in test [4] came out at 79.5 min. Further, in test [6], the IT50 was determined as 26.1 min.

Regarding `CC(C)NCC(=O)Nc1nsc2ccccc12`, the Activity in [2] is recorded as 25.9%; in test [5] it was 46.4%. Besides, in [3], the RT50 is 150 min. In addition, the IT100 in [4] was 30.2 min. Moreover, the IT50 in test [6] is recorded as 12.13 min.

In the case of `O=C(CCN1CCOCC1)Nc1nsc2ccccc12`, the Activity in [2] stood at 44.9%; in test [5], 78.2%. Moreover, the RT50 in test [3] was 86 min. Moreover, the IT100 in test [4] was 17.9 min. Besides, the IT50 in [6] came out at 7 min.

Regarding `CNCCC(=O)Nc1nsc2ccccc12`, in test [1], the VT50 is listed as 839 min. Further, the values for the Activity in test [2] and in [5] were 29.2% and 68.3%, respectively. Besides, the RT50 in test [3] was 136 min. For the same compound, the IT100 in [4] came to 20.5 min. The IT50 in test [6] is given as 10.75 min.

As for `CC(C(=O)Nc1nsc2ccccc12)N1CCCC1` (centres undefined), in [1], the VT50 is 600 min. For the same compound, the results for the Activity in test [2] and in [5] were 40.8% and 120.7%, respectively. Further, the RT50 in test [3] was 135 min. Further, the IT100 in test [4] came out at 11.6 min. In test [6], the IT50 was found to be 7.7 min.

Regarding `CCCNC(C)C(=O)Nc1nsc2ccc(C)cc12` (centres undefined), the VT50 in test [1] amounted to 365 min. In addition, the Activity is 23.6% in test [2] and 65.1% in test [5]. In test [4], the IT100 stood at 14.8 min. In test [6], the IT50 is 7.4 min.

For `O=C(CN1CCCC1)Nc1nsc2ccccc12`, the RT50 worked out at 101.5 min in test [7] and 105 min in test [3]. The IT50 is on record as 11.9 min in [8] and 5 min in [6]. The results for the VT50 in test [9] and in test [1] were 705.5 min and 610 min, respectively. For the same compound, the Activity in [2] was found to be 62.8%; in [11], 49.5%; in [5], 100%; in test [12], 26.4%. Also, the IT100 in test [10] is 28.3 min; in [4], 14 min.

Regarding `Cc1ccc2snc(NC(=O)C(C)N(C)C)c2c1` (centres undefined), the VT50 in test [1] turned out to be 1012 min. In addition, the figures for the Activity in test [2] and in test [5] were 25.7% and 75.7%, respectively. For the same compound, in [3], the RT50 came out at 162 min. Moreover, the IT100 in test [4] turned out to be 23.75 min. The IT50 in [6] stood at 11.6 min.

For `Cc1ccc2snc(NC(=O)C(C)N3CCCCC3)c2c1` (centres undefined), the Activity in test [2] came out at 28.5%; in [5], 37.8%. Moreover, the IT100 in test [4] came to 37 min. Besides, the IT50 in test [6] is reported as 11 min.

As to `CC1CCN(CC(=O)Nc2nsc3ccccc23)CC1`, in test [1], the VT50 is given as 930 min. In addition, the Activity was 12.3% in test [2] and 37.4% in [5]. Moreover, in test [3], the RT50 turned out to be 122 min. The IT100 in [4] worked out at 37.45 min. Further, the IT50 in test [6] is on record as 25.5 min.

As to `O=C(CN1CCCCC1)Nc1nsc2ccccc12`, the RT50 in test [7] is given as 141.2 min; in test [3], 142.7 min. For the same compound, the IT50 in [8] is on record as 8.05 min; in [6], 7 min. The VT50 in [9] was found to be 555.8 min; in test [1] it was 500 min. For the same compound, the Activity in test [2] came to 44.9%; in test [11] it was 59.8%; in test [5] it was 87.5%; in test [12] it was 39%. In addition, the IT100 is listed as 23.4 min in test [10] and 16 min in test [4].

For `CCN(CC)CC(=O)Nc1c(C)cccc1C` [LIDOCAINE], the VT50 in [1] came out at 660 min. In addition, the Activity in [2] and in [5] was 100% in each case. The RT50 in [3] was 48.75 min. The IT100 in [4] amounted to 14 min. In addition, the IT50 in test [6] worked out at 3.14 min.

For the origin of these results see ChEMBL document CHEMBL1153863, “Evaluation of the local anaesthetic activity of 3-aminobenzo[d]isothiazole derivatives using the rat sciatic nerve model” (2009).
